Consider 13 compounds from PubChem BioAssay (NCI).

Several values for one entry are separate records, joined by “and”; a condition that tells them apart may be missing. Equal values may be shown once.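 96-well plates; 48 h exposure; 5 concentrations. Endpoints by linear interpolation between flanking doses. Not reached: highest tested concentration assigned. GI50 is the concentration that inhibits growth by half. TGI marks complete inhibition of growth.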

Among the test systems are IGROV1 ovarian; KM12 colon; MALME-3M melanoma; MDA-MB-231 breast; RPMI-8226 leukemia; SF-539 CNS; SK-MEL-2 melanoma; SNB-75 CNS; SW-620 colon; T-47D breast; UACC-62 melanoma; NCI-H522 lung.
Test in all cases: inhibition of tumour cell growth, NCI panel, 48 h

As to `O=C(/C=C/c1ccccc1)Oc1ccc(C(=O)/C=C/c2ccc(Cl)cc2)cc1`, the TGI in the assay with IGROV1 ovarian, in the assay with KM12 colon, in the assay on MALME-3M melanoma, with MDA-MB-231 breast, in the assay with RPMI-8226 leukemia and in the assay on SF-539 CNS was more than 100 µM each time. Also, the TGI in the assay with SK-MEL-2 melanoma, in the assay on SNB-75 CNS, in the assay on SW-620 colon, with T-47D breast and with UACC-62 melanoma was more than 100 µM each time.

For `CCOC(=O)C1(F)S(=O)(=O)OCCOS1(=O)=O`, the TGI with KM12 colon, in the assay with MALME-3M melanoma, in the assay on NCI-H522 lung, with RPMI-8226 leukemia, with SF-539 CNS and in the assay on SK-MEL-2 melanoma was more than 100 µM each time. Besides, the TGI in the assay with SNB-75 CNS, with SW-620 colon, with T-47D breast and with UACC-62 melanoma was more than 100 µM throughout.

As to `COC(=O)[C@@]1(C(C)CC(=O)O)CCCCC1=O` (stereo partly drawn), the TGI in the assay on IGROV1 ovarian is more than 100 µM; in the assay on KM12 colon, more than 100 µM; in the assay with MALME-3M melanoma it was more than 100 µM; in the assay with NCI-H522 lung it was more than 100 µM; in the assay with RPMI-8226 leukemia it was 82 µM; in the assay on SF-539 CNS, more than 100 µM. The TGI in the assay on SK-MEL-2 melanoma, with SNB-75 CNS and in the assay on UACC-62 melanoma was more than 100 µM each time.

For `O=[N+]([O-])c1ccc(OC2CC3C4C=CC3C2C4)c([N+](=O)[O-])c1` (stereo not drawn), the GI50 with IGROV1 ovarian is 91.5 µM and > 31.6 µM; with KM12 colon it was more than 100 µM; in the assay on MDA-MB-231 breast, 11.3 µM and > 31.6 µM; in the assay on SK-MEL-2 melanoma, 90.4 µM and > 31.6 µM; in the assay with SNB-75 CNS it was 34.5 µM; with SW-620 colon, more than 100 µM. Besides, the GI50 was more than 100 µM with T-47D breast; 84.4 µM and > 31.6 µM in the assay with UACC-62 melanoma. Moreover, the TGI with IGROV1 ovarian was more than 100 µM; with KM12 colon, more than 100 µM; with MALME-3M melanoma, more than 100 µM; in the assay with MDA-MB-231 breast it was 74 µM and > 31.6 µM; in the assay with NCI-H522 lung, more than 100 µM; in the assay with SF-539 CNS, more than 100 µM. For the same compound, the TGI in the assay on SK-MEL-2 melanoma is more than 100 µM; in the assay with SNB-75 CNS, 69.7 µM and > 31.6 µM; in the assay on SW-620 colon, more than 100 µM; in the assay on T-47D breast, more than 100 µM; in the assay with UACC-62 melanoma, more than 100 µM.

As for `O=C(CCC1C(=O)NC(=S)NC1=O)c1ccc2ccccc2c1`, the TGI in the assay on IGROV1 ovarian was more than 100 µM; in the assay with KM12 colon, more than 100 µM; in the assay on MALME-3M melanoma, more than 100 µM; in the assay on NCI-H522 lung, 31.1 µM; in the assay on SF-539 CNS, more than 100 µM; with SK-MEL-2 melanoma, more than 100 µM. The TGI in the assay on SNB-75 CNS, in the assay with SW-620 colon and in the assay with UACC-62 melanoma was more than 100 µM each time.

For `CCN(CC)c1ccc2c(c1)Oc1ccc(N(CC)CC)cc1C21Oc2ccccc2-c2c1c1ccccc1n2CC` (stereo not drawn), the TGI is 9.27 µM in the assay with MALME-3M melanoma; 5.06 µM with NCI-H522 lung; more than 100 µM with RPMI-8226 leukemia; more than 100 µM with SNB-75 CNS; more than 100 µM with SW-620 colon; more than 100 µM with UACC-62 melanoma.

In the case of `CCOC(=O)CNC(=O)C(CSC(=O)N(O)c1ccc(Cl)cc1)NC(=O)CCC(N)C(=O)OCC` (stereo not drawn), the TGI is more than 50 µM in the assay on IGROV1 ovarian; more than 50 µM in the assay on KM12 colon; more than 50 µM with MDA-MB-231 breast; 46 µM with RPMI-8226 leukemia; more than 50 µM in the assay with SF-539 CNS; more than 50 µM with SK-MEL-2 melanoma. For the same compound, the TGI in the assay with SW-620 colon, in the assay with T-47D breast and in the assay with UACC-62 melanoma was more than 50 µM in each case.

In the case of `NS(=O)(=O)c1nnc(NS(=O)(=O)C(F)(F)F)s1`, the TGI in the assay with KM12 colon, with MALME-3M melanoma, in the assay on MDA-MB-231 breast, in the assay with NCI-H522 lung, in the assay on RPMI-8226 leukemia and with SF-539 CNS was more than 100 µM throughout. The TGI in the assay on SK-MEL-2 melanoma, with SNB-75 CNS, with SW-620 colon and with UACC-62 melanoma was more than 100 µM each time.

Turning to `O=c1[nH]c(=S)nc2nc3c4ccc[nH]c4c4ccccc4c3nc12`, the TGI in the assay with IGROV1 ovarian, with KM12 colon, in the assay with MALME-3M melanoma, in the assay on NCI-H522 lung, in the assay with RPMI-8226 leukemia and in the assay with SF-539 CNS was more than 100 µM throughout. Moreover, the TGI in the assay with SNB-75 CNS, in the assay on SW-620 colon and in the assay with UACC-62 melanoma was more than 100 µM throughout.

Regarding `CC1(C)CNCC(C)(OCc2ccccc2)C(=O)NC(C)(C)CNCC(C)(OCc2ccccc2)C(=O)N1` (stereo not drawn), the TGI in the assay with IGROV1 ovarian, in the assay with KM12 colon, in the assay on MALME-3M melanoma, with MDA-MB-231 breast, in the assay with SF-539 CNS and with SK-MEL-2 melanoma was more than 10 µM throughout. The TGI in the assay on SNB-75 CNS, with SW-620 colon, in the assay on T-47D breast and in the assay on UACC-62 melanoma was more than 10 µM throughout.

In the case of `Oc1[nH]c2ccccc2c1N=NC(=S)Nc1ccccc1Cl`, the TGI with IGROV1 ovarian was 29.8 µM; in the assay on KM12 colon, 14.9 µM; with MALME-3M melanoma, 21.8 µM; in the assay with MDA-MB-231 breast, 32 µM; in the assay with NCI-H522 lung it was more than 100 µM; in the assay on SF-539 CNS, 7.86 µM. The TGI with SK-MEL-2 melanoma was 64.8 µM; in the assay with SNB-75 CNS it was 16.1 µM; in the assay on SW-620 colon it was 40.3 µM; in the assay with T-47D breast, more than 100 µM; in the assay on UACC-62 melanoma, 20.6 µM.

Consider `CCOP1(=O)C=C(C)C(Cl)=C(C)C1` (stereo not drawn), for which the TGI with IGROV1 ovarian was more than 100 µM; with KM12 colon, 34.5 µM; in the assay with NCI-H522 lung it was 27.8 µM; with RPMI-8226 leukemia, 62.6 µM; with SF-539 CNS, 59.5 µM; in the assay with SK-MEL-2 melanoma, 50.4 µM. The figures for the TGI with SNB-75 CNS, in the assay with SW-620 colon and in the assay with UACC-62 melanoma were 69.7 µM, 53.5 µM and 33.9 µM, respectively.

Turning to `COc1ccc(OC)c(CNc2ccc(C(=O)O)cc2)c1`, the TGI with IGROV1 ovarian, in the assay on KM12 colon, with MALME-3M melanoma, in the assay with MDA-MB-231 breast, in the assay with NCI-H522 lung and in the assay on RPMI-8226 leukemia was more than 100 µM each time. Further, the TGI with SF-539 CNS, in the assay on SK-MEL-2 melanoma, in the assay with SNB-75 CNS, in the assay with SW-620 colon and in the assay on UACC-62 melanoma was more than 100 µM each time.
